According to US5571825A, “Method of selectively inhibiting prostaglandin G/H synthase-2” (Warner-Lambert Company, priority 1995, dated 1996):
“And” between values parts separate entries of the source, which are not always exact repeats. Equal values may be shown once. Read-outs that look alike come from different tables or passages of the source.

Experiments:
[1] = biological target: T1, prostaglandin G/H synthase-2 (Ovis aries, UniProt P79208); assay: Inhibition of prostaglandin G/H synthase-2 (conversion of [14C]arachidonic acid to products); type: biochemical; settings: enzyme purified from sheep placenta, 15 min preincubation, pH 7.4, room temperature
T1 construct: purified from sheep placenta; from tissue; host or cells: sheep placenta
Protocol: (§1) The compounds of the present invention were evaluated as selective inhibitors of prostaglandin G/H synthase-2 by determining the effect of the compounds on the conversion of [^14 C]arachidonic acid to products by prostaglandin G/H synthase-2 purified from sheep placenta. This enzyme shares immunoreactivity and sequence homology with human prostaglandin G/H synthase-2. The effects of the compounds on prostaglandin G/H synthase-1 purified from ram seminal vesicles is used for the evaluation of inhibitory selectivity.
(§2) Each compound was preincubated for 15 minutes at room temperature in 50 mM sodium phosphate buffer at pH 7.4 containing 3.33 mM reduced glutathione, 2.67 mM epinephrine and 6.6% dimethylsulfoxide with sufficient enzyme to cause approximately 30% conversion of substrate to products after 15 minutes incubation in the absence of inhibitory compounds. Reactions with 24 μM arachidonic acid are initiated by the addition of a one third volume of 50 mM sodium phosphate buffer, pH 7.4, containing 3.33 mM reduced glutathione, 2.67 mM epinephrineβ and [^14 C] arachidonic acid.
(§3) Reactions were terminated after 15 minutes incubation at room temperature by the addition of 1.875 volumes of methanol:acetic acid (100:0.1) containing 0.5 mg/ml triphenylphosphine. The reaction products were separated from the unconverted substrate by high performance liquid chromatography and quantified by on-line radiometric detection. Compound effects were computed as percent inhibition of blank-adjusted mean product formation in uninhibited incubations.

[2] = biological target: T2, prostaglandin G/H synthase-1 (Ovis aries, UniProt P05979); assay: Inhibition of prostaglandin G/H synthase-1 (conversion of [14C]arachidonic acid to products); type: biochemical; settings: enzyme purified from ram seminal vesicles, 15 min preincubation, pH 7.4, room temperature
T2 construct: purified from ram seminal vesicles; from tissue; host or cells: ram seminal vesicles
T2 sequence (P05979 25-600): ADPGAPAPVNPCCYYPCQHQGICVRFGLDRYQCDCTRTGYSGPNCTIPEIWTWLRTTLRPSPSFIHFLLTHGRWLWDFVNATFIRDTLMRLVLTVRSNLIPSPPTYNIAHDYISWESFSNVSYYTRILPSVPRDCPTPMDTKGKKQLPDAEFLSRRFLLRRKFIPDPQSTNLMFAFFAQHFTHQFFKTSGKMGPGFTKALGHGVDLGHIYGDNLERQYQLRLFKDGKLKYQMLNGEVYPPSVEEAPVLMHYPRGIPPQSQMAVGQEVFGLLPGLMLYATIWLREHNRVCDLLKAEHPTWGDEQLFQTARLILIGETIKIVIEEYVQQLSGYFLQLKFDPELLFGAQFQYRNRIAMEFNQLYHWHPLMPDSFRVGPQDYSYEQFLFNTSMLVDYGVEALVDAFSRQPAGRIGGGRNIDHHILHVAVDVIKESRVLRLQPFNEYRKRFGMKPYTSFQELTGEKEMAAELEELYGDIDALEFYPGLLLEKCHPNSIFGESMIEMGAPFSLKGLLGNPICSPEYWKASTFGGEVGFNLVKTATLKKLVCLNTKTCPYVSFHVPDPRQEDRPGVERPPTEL
Protocol: as §1, §2, §3

[3] = pH 7.4, 10 μM, read-out: % Inhibition of PGHS-2 at 10 μM
[4] = pH 7.4, 100 μM, read-out: % Inhibition of PGHS-2 at 100 μM
[5] = pH 7.4, 10 μM, read-out: % Inhibition of PGHS-1 at 10 μM
[6] = pH 7.4, 100 μM, read-out: % Inhibition of PGHS-1 at 100 μM
[7] = pH 7.4, read-out: % Inhibition of PGHS-2 at 10 μM, 10 μM
[8] = pH 7.4, read-out: % Inhibition of PGHS-2 at 100 μM, 100 μM
[9] = pH 7.4, read-out: % Inhibition of PGHS-1 at 10 μM, 10 μM
[10] = pH 7.4, read-out: % Inhibition of PGHS-1 at 100 μM, 100 μM

T1 sequence (P79208 17-603): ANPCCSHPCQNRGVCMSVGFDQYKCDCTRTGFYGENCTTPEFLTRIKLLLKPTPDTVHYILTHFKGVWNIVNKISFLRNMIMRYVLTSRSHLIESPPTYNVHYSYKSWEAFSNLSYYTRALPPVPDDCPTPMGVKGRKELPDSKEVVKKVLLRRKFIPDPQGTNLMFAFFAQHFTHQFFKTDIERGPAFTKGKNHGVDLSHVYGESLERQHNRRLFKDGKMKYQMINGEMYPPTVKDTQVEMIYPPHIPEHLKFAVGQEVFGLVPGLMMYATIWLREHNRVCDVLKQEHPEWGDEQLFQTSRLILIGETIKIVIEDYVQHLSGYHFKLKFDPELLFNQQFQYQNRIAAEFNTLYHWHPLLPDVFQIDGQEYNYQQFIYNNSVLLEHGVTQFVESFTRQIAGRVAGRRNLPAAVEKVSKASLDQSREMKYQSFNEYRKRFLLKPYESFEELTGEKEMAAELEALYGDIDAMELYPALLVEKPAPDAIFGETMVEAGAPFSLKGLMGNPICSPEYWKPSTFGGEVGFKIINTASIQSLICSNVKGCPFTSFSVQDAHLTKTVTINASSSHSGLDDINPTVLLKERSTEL

Structure (SMILES) | inhibition at 10 µM [1, 3] [%] | inhibition at 100 µM [1, 4] [%] | inhibition at 10 µM [2, 5] [%] | inhibition at 100 µM [2, 6] [%] | inhibition at 10 µM [1, 7] [%] | inhibition at 100 µM [1, 8] [%] | inhibition at 10 µM [2, 9] [%] | inhibition at 100 µM [2, 10] [%] | % Inhibition of PGHS-2 at 10 μM [1] [%] | % Inhibition of PGHS-2 at 100 μM [1] | % Inhibition of PGHS-1 at 10 μM ([2]; 10 μM) [%] | % Inhibition of PGHS-1 at 100 μM [2] [%]
COC(=O)CSC(c1ccccc1)(c1ccc(OC)cc1)c1ccc(OC)cc1 [Example 13, Methyl [[(bis-4-methoxyphenyl)phenylmethyl]thio]acetate] | 41 | 49 | < 10 | < 10 | – | – | – | – | – | – | – | –
COC(=O)CSC1c2ccccc2C=Cc2ccccc21 [Example 15, Methyl (5H-dibenzo[a,d]cyclohepten-5-yl-thio)acetate] | < 10 | 31 | < 10 | < 10 | – | – | – | – | – | – | – | –
COC(=O)CSC(c1ccccc1Cl)c1ccccc1Cl [Example 7, Methyl [[bis-(2-chlorophenyl)methyl]thio]acetate] | – | – | – | – | < 10 | 37 | < 10 | < 10 | – | – | – | –
COC(=O)CSC1c2ccccc2-c2ccccc21 [Example 10, Methyl (9-fluorenylthio)acetate] | 30 | 77 | < 10 | 18 | – | – | – | – | – | – | – | –
COC(=O)CSC(c1ccc(C)cc1)c1ccc(C)cc1 [Example 6, Methyl [[bis-(4-methylphenyl)methyl]thio]acetate] | – | – | – | – | 11 | 52 | < 10 | < 10 | – | – | – | –
COC(=O)CSC(c1ccc(N(C)C)cc1)c1ccc(N(C)C)cc1 [Example 4, Methyl [[bis-(4-dimethylaminophenyl)methyl]thio]acetate] | 86 | 96 | 42 | 68 | – | – | – | – | 92 | 99% and 92% | 31 | 72
COC(=O)CSC1c2ccccc2Oc2ccccc21 [Example 16, Methyl (xanthen-9-yl-thio)acetate] | 41 | 78 | < 10 | – | – | – | – | – | 50 | 85% | – | –
COC(=O)CSC1(c2ccccc2)c2ccccc2-c2ccccc21 [Example 14, Methyl (9-phenylfluoren-9-yl-thio)acetate] | 14 | 50 | < 10 | < 10 | – | – | – | – | – | – | – | –
COC(=O)CSC1c2ccccc2CCc2ccccc21 [Example 17, Methyl (10, 11-dihydro-5H-dibenzo[a,d]cyclohepten-5-yl-thio)acetate] | 8 | 17 | < 10 | < 10 | – | – | – | – | – | – | – | –
COC(=O)CSC(c1ccccc1)(c1ccccc1)c1ccccc1 [Example 11, Methyl [(triphenylmethyl)thio]acetate] | 29 | 62 | < 10 | 10 | – | – | – | – | – | – | – | –
COC(=O)CSC(c1ccc(OC)cc1)c1ccc(OC)cc1 [Example 2, Methyl [[bis-(4-methoxyphenyl)methyl]thio]acetate] | – | – | – | – | 23 | 79 | < 10 | < 10 | 34 | 74% | – | 13
COC(=O)CSC(c1ccc(OC)cc1)(c1ccc(OC)cc1)c1ccc(OC)cc1 [Example 12, Methyl [[(tris-4-methoxyphenyl)methyl]thio]acetate] | 79 | 80 | – | 32 | – | – | – | – | 83 | 86% | – | 17
COC(=O)CSC(c1ccc(F)cc1)c1ccc(F)cc1 [Example 5, Methyl [[bis-(4-fluorophenyl)methyl]thio]acetate] | – | – | – | – | – | 52 | < 10 | < 10 | – | 40% | – | –
COC(=O)CSC(c1cccs1)c1cccs1 [Example 9, Methyl [[bis-(2-thienyl)methyl]thio]acetate] | < 10 | 33 | < 10 | < 10 | – | – | – | – | – | – | – | –
COC(=O)CSC(c1ccc(Cl)cc1)c1ccc(Cl)cc1 [Example 3, Methyl [[bis-(4-chlorophenyl)methyl]thio]acetate] | – | – | – | – | – | 45 | – | – | – | 46% | – | –
COC(=O)CSC(c1ccccc1OC)c1ccccc1OC [Example 8, Methyl [[bis-(2-methoxyphenyl)methyl]thio]acetate] | – | – | – | – | 14 | 77 | – | – | – | – | – | –
COC(=O)CSC(c1ccccc1)c1ccccc1 [Example 1, Methyl [(diphenylmethyl)thio]acetate] | – | – | – | – | 56 | 84 | 20 | 42 | – | – | – | –
